Test results taken from US7115645B2, “1,2 diarylbenzimidazoles and their pharmaceutical use” (Schering Aktiengesellschaft, priority 2000, dated 2006).

System: primary rat microglia
Experiment: Inhibition of microglia activation (Aβ-peptide-activated primary rat microglia, MTS reduction)
Assay type: cell-based
Conditions: 168 h, test of Example 307, metabolic activity via MTS reduction on cultivation day 7, relative to DMSO control

Molecule `Cc1ccc(-n2c(-c3ccccc3)nc3ccc(OCCCCCC(=O)OC(C)C)cc32)cc1` [Example 49, 6-[[1-(4-Methylphenyl)-2-phenyl-1H-benzimidazol-6-yl]oxy]hexanoic acid isopropyl ester] has an IC50 of 750 nM.
